Assays:
[1] = tested on: SU-DHL-2; experiment: Combined drug treatment cell viability (CellTiter-Glo), ibrutinib with BET inhibitors, SU-DHL-2; assay type: cell-based; conditions: JQ1 100 nM, OTX015 1 uM (Table 2) or medium alone (row), 3 days
Experimental: (§1) The DLBCL cell lines used during the experiments included TMD8, OCI-LY3, OCI-LY10, U-2932 and SU-DHL-2. DLBCL cells at either 1×10^4 cells or 2×10^4 cells were plated onto each well of a 96-W plate (Table 1). […] The 96-W plate was then incubated for 3 days. Cell viability was examined using a CellTiter-Glo assay. A 40 μL of CellTiter-Glo reagent was added directly into each well of the 96-W plate. The plate was then shaken on a Shaker ([…]) at speed 5 for 10-20 min at room temperature. Next, about 100 μL of the mixed medium was transferred to a white, non-transparent, flat bottom 96-W plate for assaying. […] Measurements were taken at room temperature. CellTiter-Glow reagents were thawed prior to use. Cells pre-plated onto a second 96-W plate and incubated at room temperature for 30 minutes were used for calibration purposes. […] CI is a quantitative description of the interaction property of the combination of two drugs.

[2] = tested on: TMD8; experiment: Combined drug treatment cell viability (CellTiter-Glo), ibrutinib with BET inhibitors, TMD8; assay type: cell-based; conditions: JQ1 20 nM, OTX015 100 nM or medium alone (row), 3 days
Experimental: as §1

[3] = tested on: OCI-LY3; experiment: Combined drug treatment cell viability (CellTiter-Glo), ibrutinib with BET inhibitors, OCI-LY3; assay type: cell-based; conditions: OCI-LY-3, JQ1 1 uM, OTX015 1 uM or medium alone (row), 3 days
Experimental: as §1

[4] = tested on: OCI-LY10; experiment: Combined drug treatment cell viability (CellTiter-Glo), ibrutinib with BET inhibitors, OCI-LY10; assay type: cell-based; conditions: OCI-LY-10, JQ1 1 uM, OTX015 1 uM or medium alone (row), 3 days
Experimental: as §1

[5] = tested on: activated B-cell like (ABC) subtype of DLBCL; conditions: patients with ABC subtype of DLBCL; cited from earlier work
[6] = tested on: U-2932; experiment: Combined drug treatment cell viability (CellTiter-Glo), ibrutinib with BET inhibitors, U-2932; assay type: cell-based; conditions: U2932, JQ1 20 nM, OTX015 50 nM (Table 2) or medium alone (row), 3 days
Experimental: as §1

[7] = ibrutinib 0.0256 nM with I-BET151 200 nM
[8] = ibrutinib 0.64 nM with I-BET151 200 nM
[9] = ibrutinib 3.2 nM with I-BET151 200 nM
[10] = ibrutinib 16 nM with I-BET151 200 nM
[11] = ibrutinib 80 nM with I-BET151 200 nM
[12] = ibrutinib 400 nM with I-BET151 200 nM
[13] = ibrutinib 2000 nM with I-BET151 200 nM
[14] = ibrutinib 10000 nM with I-BET151 200 nM
[15] = ibrutinib […] with I-BET151 200 nM
[16] = ibrutinib 0.0256 nM with I-BET151 5 uM
[17] = ibrutinib 0.64 nM with I-BET151 5 uM
[18] = ibrutinib 3.2 nM with I-BET151 5 uM
[19] = ibrutinib 16 nM with I-BET151 5 uM
[20] = ibrutinib 80 nM with I-BET151 5 uM
[21] = ibrutinib 400 nM with I-BET151 5 uM
[22] = ibrutinib 2000 nM with I-BET151 5 uM
[23] = ibrutinib 10000 nM with I-BET151 5 uM
[24] = ibrutinib […] with I-BET151 5 uM

C=CC(=O)N1CCC[C@@H](n2nc(-c3ccc(Oc4ccccc4)cc3)c3c(N)ncnc32)C1 [ibrutinib, 1-((R)-3-(4-amino-3-(4-phenoxyphenyl)-1H-pyrazolo[3,4-d]pyrimidin-1-yl)piperidin-1-yl)prop-2-en-1-one]
luminescent signals ([1]; ibrutinib 0.0256 nM with I-BET151 2 uM): 141202
luminescent signals ([1]; ibrutinib 0.64 nM with I-BET151 2 uM): 159399
luminescent signals ([1]; ibrutinib 3.2 nM with I-BET151 2 uM): 161613.5
luminescent signals ([1]; ibrutinib 16 nM with I-BET151 2 uM): 155353.5
luminescent signals ([1]; ibrutinib 80 nM with I-BET151 2 uM): 164140.7
luminescent signals ([1]; ibrutinib 400 nM with I-BET151 2 uM): 159908.6
luminescent signals ([1]; ibrutinib 2000 nM with I-BET151 2 uM): 154426.1
luminescent signals ([1]; ibrutinib 10000 nM with I-BET151 2 uM): 111485.8
luminescent signals ([1]; ibrutinib […] with I-BET151 2 uM): 146159.1
luminescent signals [2, 7]: 32496.06
luminescent signals [2, 8]: 29180.29
luminescent signals [2, 9]: 31383.77
luminescent signals [2, 10]: 27190.31
luminescent signals [2, 11]: 28263.05
luminescent signals [2, 12]: 25674.76
luminescent signals [2, 13]: 23421.2
luminescent signals [2, 14]: 10819.72
luminescent signals [2, 15]: 32828.16
luminescent signals [3, 16]: 63957.7
luminescent signals [3, 17]: 63322.7
luminescent signals [3, 18]: 66789.02
luminescent signals [3, 19]: 64655.7
luminescent signals [3, 20]: 68972.2
luminescent signals [3, 21]: 64472.02
luminescent signals [3, 22]: 55749.79
luminescent signals [3, 23]: 63477.51
luminescent signals [3, 24]: 59441.78
luminescent signals [4, 16]: 61548.88
luminescent signals [4, 17]: 63983.91
luminescent signals [4, 18]: 51190.81
luminescent signals [4, 19]: 27324.38
luminescent signals [4, 20]: 23511.43
luminescent signals [4, 21]: 23784.91
luminescent signals [4, 22]: 24452.84
luminescent signals [4, 23]: 24826.24
luminescent signals [4, 24]: 68196.56
overall response rate [5]: 41%
overall survival [5]: 9.7 month
luminescent signals [6, 7]: 63123.8
luminescent signals [6, 8]: 53722.16
luminescent signals [6, 9]: 53031.79
luminescent signals [6, 10]: 51023.93
luminescent signals [6, 11]: 49777.58
luminescent signals [6, 12]: 46009.54
luminescent signals [6, 13]: 46858.01
luminescent signals [6, 14]: 37935.94
luminescent signals [6, 15]: 57150.28

— patent US20160022684A1, “BET INHIBITOR AND BRUTON'S TYROSINE KINASE INHIBITOR COMBINATIONS” (Pharmacyclics LLC, priority 2014, published 2016)
